The text below walks through data of patent US11633382B2, “Treatment of ER-negative breast cancer with an PDGF-CC inhibitor and anti-estrogen” (Paracrine Therapeutics AB, priority 2015, dated 2023).

One assay has as its system Human MDA-MB-231 cells. The experiment in a line: MDA-MB-231 orthotopic xenograft, anti-PDGF-CC and aromatase inhibitor (Example 2). Conditions: A3B6 i.p. twice a week, letrozole 1 mg/dose oral daily; combination p<0.01 vs control, p<0.05 vs A3B6, p<0.001 vs letrozole (FIG. 7). The class given is in vivo, SCID mice. The source says: All therapeutic administrations were open-label.

Assay [1] concerns MMTV-PyMT; Pdgfc^lacz/lacz tumors. The experiment in a line: Orthotopically transplanted MMTV-PyMT; Pdgfc lacz/lacz tumors, tamoxifen trial. Conditions: Pdgfc-deficient tumors. It is filed as in vivo, FVB/N mice. As to the method: (§1) 3 weeks old FVB/N (common background strain for both MMTV-PyMT and PDGF-C mice) female mice were anesthetized and maintained under Isolfluorane during the surgical procedure. A 4 mm incision under the nipple of the right abdominal mammary gland created a pocket where a 2×2 mm tumor piece (kept on ice, either from MMTV-PyMT or MMTV-PyMT; PDGF-C tumors) was inserted. Suturing was performed with 6-O Ethilon polyamide filament (Ethicon). Pain-killer and anti-inflammatory Rimadyl (5 mg/kg body weight; Orion Pharma Animal Health) was injected i.p. at the end of the surgical procedure and for the following two days. For the therapeutic trial, Tamoxifen (2 mg/mL) was diluted in corn oil (vehicle) and administered via oral gavage daily.
(§2) Mouse mammary cell lines MMTV . . . MMTV/PDGF-C−/− . . . (established in our laboratory) were orthotopically injected into the 4th inguinal mammary gland on FVB/N mice. Furthermore, small tumor pieces (2 mm^3) of MMTV-PyMT and MMTV-PDGF-CC−/− tumors were directly orthotopically transplanted under anesthesia. The mice were subjected to Rimadyl immediately after the surgery and the following two days for analgetics. The tumors were measured twice a week and mice were euthanized as described above. […]

Assay [2] relates to MMTV-PyMT; Pdgfc+/+ tumors. The experiment in a line: Orthotopically transplanted MMTV-PyMT; Pdgfc+/+ (wt) tumors, tamoxifen trial. It is filed as in vivo, FVB/N mice. Conditions: tamoxifen daily (FIG. 6a). As to the method:
as §1, §2

Assay [3] relates to MDA-MB-231 tumors (basal-like subtype). The assay is described as follows: MDA-MB-231 xenograft in SCID mice, tumor growth and angiogenesis (Example 1). Conditions: tamoxifen oral gavage daily with control antibody or A3B6 (FIG. 6c-d). The class given is in vivo. Here is the method: 2×10^6 Human MDA-MB-231 cells were inoculated subcutaneously in immunodeficient mice. […] When tumors were palpable (longest diameter >3 mm), mice were randomized and treated with Tamoxifen (3 mg/kg) or vehicle (corn oil) via oral gavage daily.
In order to investigate whether pharmacological targeting of PDGF-CC as a mono-therapy impacted on breast tumor growth or angiogenesis, we treated SCID mice bearing orthotopically implanted MDA-MB-231 tumors (basal-like subtype) twice-weekly with the PDGF-CC antibody, A3B6 or with control antibody.
The clinically most important distinguishing feature of luminal subtype breast tumors is the expression of ERα, which confers sensitivity to hormone therapy, such as tamoxifen. We next set out to investigate whether targeting of PDGF-CC would convey sensitivity to hormone therapy to previously impervious ER-negative breast tumors of basal-like subtype. Non-transgenic mice bearing orthopically transplanted tumors from MMTV-PyMT; Pdgfc^+/+ or MMTV-PyMT; Pdgfc^lacz/lacz mice were treated daily with tamoxifen starting from […].

Assay [4] relates to ER-negative breast cancer. Conditions: ER-negative disease, patients; cited from earlier work.

On to `N#Cc1ccc(C(c2ccc(C#N)cc2)n2cncn2)cc1` [letrozole], for which the “tumor growth, difference between groups” value in the assay on Human MDA-MB-231 cells is recorded as “no other differences are statistically significant”.

Turning to `CCC(=C(c1ccccc1)c1ccc(OCCN(C)C)cc1)c1ccccc1` [tamoxifen, 2-[4-(1,2-diphenylbut-1-enyl)phenoxy]-N,N-dimethyl-ethanamine], the tumor growth entry in assay [1] (tamoxifen daily (FIG. 6b)) was “severely growth-retarded”. The “tumor volume at the end of the trial” value in assay [1] (tamoxifen daily, untreated tumors had grown) is “reduced volume”. In addition, the “tumor growth rate vs untreated mice” value in assay [2] is recorded as “continued to grow at a similar rate”. Moreover, the “growth of fully established MDA-MB-231 tumors” value in assay [3] is reported as “unable to influence the growth”. Further, the “effect on breast cancer recurrence or mortality” value in assay [4] was “little or no effect”.
